# Source: publication PMC6369673, “Silent catalytic promiscuity in the high-fidelity terpene cyclase δ-cadinene synthase” (Organic & Biomolecular Chemistry, 2019)
# Where a name gives a salt, the structure may show the parent alone. Read-outs that look alike come from different tables or passages of the source.
# Experiments:
# DCS = molecular target: DCS; design: method as in PMID 22397618; conditions: cited from earlier work
# [1] = molecular target: T1, δ-cadinene synthase (DCS-His6) (Gossypium arboreum, UniProt Q39761); experiment: Inhibition of δ-cadinene synthase, radiolabelled FDP assay; type: biochemical
# T1 construct: hexahistidine (His6) (C); made in house; host or cells: E. coli BL-21 (DE3)
# T1 sequence (Q39761 1-554): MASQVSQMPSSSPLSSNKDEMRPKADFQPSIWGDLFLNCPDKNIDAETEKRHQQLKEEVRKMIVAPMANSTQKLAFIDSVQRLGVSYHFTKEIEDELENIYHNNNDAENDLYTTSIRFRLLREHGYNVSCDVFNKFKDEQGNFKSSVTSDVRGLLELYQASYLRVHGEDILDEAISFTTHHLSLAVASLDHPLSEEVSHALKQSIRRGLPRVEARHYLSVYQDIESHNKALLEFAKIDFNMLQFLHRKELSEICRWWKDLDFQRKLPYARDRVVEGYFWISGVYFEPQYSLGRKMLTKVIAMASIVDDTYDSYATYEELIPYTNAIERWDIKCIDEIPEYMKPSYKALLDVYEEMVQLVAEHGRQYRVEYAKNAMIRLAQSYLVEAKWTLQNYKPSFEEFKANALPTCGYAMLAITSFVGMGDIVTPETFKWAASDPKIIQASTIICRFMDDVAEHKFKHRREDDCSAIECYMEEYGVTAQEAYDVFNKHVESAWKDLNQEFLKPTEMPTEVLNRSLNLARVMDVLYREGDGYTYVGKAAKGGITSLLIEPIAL
# Experimental: (§1) Recombinant AS and ADS were prepared and purified according to previously published procedures[17],[18] and both (R)-11 and (S)-11 were tested as inhibitors using a standard radiolabelled assay involving conversion of tritium labelled FDP by each enzyme and scintillation counting of the pentane extractable products.[5b] Terpene synthases are known to efficiently bind cation-PPi pairs and inhibition was assessed both in the presence and absence of 250 μM diphosphate (Table 1). Synergistic inhibition of aza-analogues 11 with diphosphate has been observed previously for a variety of other terpene synthases.[5d],[13c],[14]
# (§2) Kinetic data were fitted by non-linear regression to the Michaelis–Menten equation (v0 = kcat[E][S]/(KM + [S]). The mode of inhibition was determined by inspection of double reciprocal plots and observed to be competitive in all cases where inhibition was significant at low concentrations of 11. KI was determined from a plot of inhibitor concentration versus K′M/(kcat[E]) where K′M = KM(1 + [I]/KI).
# Recombinant DCS was generated with a C-terminal hexahistidine tag (DCS-His6) as previously described.[19] Inhibition assays were carried out using the same protocol used for AS and ADS. […] DCS clearly requires a cation–anion pair in its active site for effective inhibition by aza-analogues. Our results provide strong evidence for 1,6-cyclase activity for DCS. […]
# (§3) 2. Steady-state kinetics of DCS-His6, ADS and AS.
# (§4) Kinetic assays were carried out according to the standard, linear range, micro-assay procedure previously described.5 The reaction mixtures containing buffer, FDP and protein were prepared on ice in a total volume of 250 µL and were overlaid with ca. 0.8 mL of HPLC-grade hexane prior to incubation. The assay mixtures were initiated by addition of enzyme and incubated at room temp (30 °C) for 10 min. The reactions were immediately ice-cooled and quenched by addition of 200 µL of 100 mM EDTA (pH 8.5) and brief vortexing. The hexane overlay and two additional 1 mL hexane extracts were passed through a short pipette column containing silica gel. The column was washed with additional hexane (1 mL) and the combined filtrates were analysed by liquid scintillation counting using 15 mL of scintillation cocktail Ecoscint O. Steady-State kinetic parameters for DCS-His6 and mutants were obtained by direct fitting of the data to the Michaelis-Menten equation by nonlinear least squares regression in conjunction with the graphical procedures developed by Lineweaver-Burk using the commercial SigmaPlot package (Systat Software).
# [2] = molecular target: T2, aristolochene synthase from Penicillium roqueforti (AS) (Penicillium roqueforti, UniProt Q03471); experiment: Inhibition of aristolochene synthase, radiolabelled FDP assay; type: biochemical
# T2 construct: made in house
# T2 sequence (Q03471 whole entry): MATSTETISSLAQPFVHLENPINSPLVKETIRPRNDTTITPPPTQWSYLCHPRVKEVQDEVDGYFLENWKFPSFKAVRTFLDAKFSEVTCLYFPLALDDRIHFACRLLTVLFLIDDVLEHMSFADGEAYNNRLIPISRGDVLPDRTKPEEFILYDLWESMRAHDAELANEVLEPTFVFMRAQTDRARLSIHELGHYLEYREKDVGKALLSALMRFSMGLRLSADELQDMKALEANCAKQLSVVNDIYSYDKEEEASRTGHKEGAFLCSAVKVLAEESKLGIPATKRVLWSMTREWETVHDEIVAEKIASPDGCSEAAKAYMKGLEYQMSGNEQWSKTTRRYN
# Experimental: as §1
# as §2, with “[I]/KI). […]” for “[I]/KI).”
# as §3, §4
# [3] = molecular target: T3, amorpha-4,11-diene synthase (ADS) (Artemisia annua, UniProt Q9AR04); experiment: Inhibition of amorpha-4,11-diene synthase, radiolabelled FDP assay; type: biochemical
# T3 construct: made in house
# T3 sequence (Q9AR04 whole entry): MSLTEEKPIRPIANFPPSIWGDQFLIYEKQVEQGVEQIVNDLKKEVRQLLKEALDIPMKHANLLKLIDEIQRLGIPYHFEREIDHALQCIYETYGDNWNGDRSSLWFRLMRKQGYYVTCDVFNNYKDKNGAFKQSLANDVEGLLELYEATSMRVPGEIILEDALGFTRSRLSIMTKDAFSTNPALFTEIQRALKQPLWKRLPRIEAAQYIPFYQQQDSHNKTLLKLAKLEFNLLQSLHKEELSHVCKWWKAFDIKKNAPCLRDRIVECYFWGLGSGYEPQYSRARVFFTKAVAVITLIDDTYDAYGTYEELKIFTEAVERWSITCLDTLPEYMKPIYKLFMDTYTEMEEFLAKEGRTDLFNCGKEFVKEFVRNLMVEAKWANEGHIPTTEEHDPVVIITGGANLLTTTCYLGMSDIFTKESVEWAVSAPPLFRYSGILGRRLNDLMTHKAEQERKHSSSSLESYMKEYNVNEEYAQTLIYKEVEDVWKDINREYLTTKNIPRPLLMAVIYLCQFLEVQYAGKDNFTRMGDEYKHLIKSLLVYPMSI
# Experimental: as §1
# as §2, with “[I]/KI). […]” for “[I]/KI).”
# as §3, §4
# [4] = +250 μM PPi, read-out: K i (μM) (+250 μM PPi)
# [5] = K i (μM) (+250 μM PPi), +250 μM PPi
compound,measurement,setting,value
CC(C)=CCCN(C)[C@@H]1CC=C(C)CC1 (as salt: hydrochloride) [(S)-11],melting point,,131 to 133 °C
"CC(C)=CCCC(C)=C(F)CCC(C)=CCOP(=O)(O)OP(=O)(O)O [6F-FDP, 6-fluorofarnesyl diphosphate]",Ki,"DCS; DCS, 6F-FDP as substrate analogue",2.4 µM
same,Products when incubated with DCS,DCS; pentane-extractable products,no detectable pentane-extractable products
CC(C)=CCCN(C)[C@H]1CC=C(C)CC1 [(R)-11],Ki,[1]; [4],2.5 ± 0.5 µM
same,Ki,"[1]; absence of PPi, read-out: K i",1700 ± 300 µM
same,Inhibition in words,[1]; in the absence of PPi,weak inhibitor
same,Ki,[2]; [5],489 ± 62 µM
same,Ki,"[2]; K i (μM), absence of PPi",472 ± 48 µM
same,Ki,[3]; [4],3.7 ± 1.9 µM
same,Ki,"[3]; absence of PPi, read-out: K i",50 ± 17 µM
CC(C)=CCCN(C)[C@@H]1CC=C(C)CC1 [(S)-11],Ki,[1]; [4],3.44 ± 1.43 µM
same,Ki,"[1]; absence of PPi, read-out: K i",273 ± 77 µM
same,Ki,[2]; [5],255 ± 23 µM
same,Ki,"[2]; K i (μM), absence of PPi",295 ± 23 µM
same,Ki,[3]; [4],1.5 ± 0.5 µM
same,Ki,"[3]; absence of PPi, read-out: K i",25 ± 5 µM
